Values joined by “and” are separate entries in the source; they are usually repeats but may differ in a detail not shown here. Equal values may be shown once.
How the values were obtained:
PIK3CB (Human) [1] = target: PIK3CB (Human) (UniProt P42338); experiment: Cell-Based Assay; details: jurkat
PIK3CA (human) [2] = target: PIK3CA (human) (UniProt P42336); experiment: Enzyme Assay
PIK3CB (Human) [3] = target: PIK3CB (Human) (UniProt P42338); experiment: Enzyme Assay
PIK3CG (human) = PIK3CG (human) (UniProt P48736); experiment: Enzyme Assay
[4] = target: PIK3CA (human), P42336 [I800L]; experiment: Enzyme Assay
PIK3CD (Human) [5] = target: PIK3CD (Human) (UniProt O00329); experiment: Enzyme Assay
PIK3CA (human) [6] = target: PIK3CA (human) (UniProt P42336); experiment: Cell-Based Assay; details: jurkat
PIK3CB (Human) [7] = target: PIK3CB (Human) (UniProt P42338); experiment: Cell-Based Assay; details: jurkat; remark: listed apart in the source
PIK3CD (Human) [8] = target: PIK3CD (Human) (UniProt O00329); experiment: Cell-Based Assay; details: jurkat

Sequence of PIK3CB (Human) (P42338 whole entry, looked up): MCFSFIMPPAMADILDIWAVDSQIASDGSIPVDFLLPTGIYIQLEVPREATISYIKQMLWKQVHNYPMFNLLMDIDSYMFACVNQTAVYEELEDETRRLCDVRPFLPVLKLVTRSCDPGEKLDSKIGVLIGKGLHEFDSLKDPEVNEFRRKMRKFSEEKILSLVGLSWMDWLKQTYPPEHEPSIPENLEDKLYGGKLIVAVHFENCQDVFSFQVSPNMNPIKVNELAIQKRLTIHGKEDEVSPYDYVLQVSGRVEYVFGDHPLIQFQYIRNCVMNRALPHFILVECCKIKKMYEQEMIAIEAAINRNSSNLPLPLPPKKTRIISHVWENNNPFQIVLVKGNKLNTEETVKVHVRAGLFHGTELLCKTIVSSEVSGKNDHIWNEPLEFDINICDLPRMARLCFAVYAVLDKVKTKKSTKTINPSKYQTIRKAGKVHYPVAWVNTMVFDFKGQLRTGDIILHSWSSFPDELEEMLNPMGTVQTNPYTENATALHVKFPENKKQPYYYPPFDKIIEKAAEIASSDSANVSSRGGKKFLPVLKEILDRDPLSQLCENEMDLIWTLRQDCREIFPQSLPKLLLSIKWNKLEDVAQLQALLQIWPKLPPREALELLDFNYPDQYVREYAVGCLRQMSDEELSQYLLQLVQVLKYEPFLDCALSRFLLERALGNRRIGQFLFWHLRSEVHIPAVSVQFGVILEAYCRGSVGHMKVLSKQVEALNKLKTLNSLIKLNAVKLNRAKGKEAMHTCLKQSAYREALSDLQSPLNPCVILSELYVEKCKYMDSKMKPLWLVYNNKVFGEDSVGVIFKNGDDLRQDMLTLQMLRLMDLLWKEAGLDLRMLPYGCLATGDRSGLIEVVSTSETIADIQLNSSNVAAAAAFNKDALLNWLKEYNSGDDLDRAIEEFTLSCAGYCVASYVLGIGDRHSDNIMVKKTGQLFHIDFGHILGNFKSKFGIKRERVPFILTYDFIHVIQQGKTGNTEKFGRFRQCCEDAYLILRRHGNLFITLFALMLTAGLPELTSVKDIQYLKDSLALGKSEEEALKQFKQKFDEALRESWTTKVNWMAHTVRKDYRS
Sequence of PIK3CA (human) (P42336 whole entry, looked up): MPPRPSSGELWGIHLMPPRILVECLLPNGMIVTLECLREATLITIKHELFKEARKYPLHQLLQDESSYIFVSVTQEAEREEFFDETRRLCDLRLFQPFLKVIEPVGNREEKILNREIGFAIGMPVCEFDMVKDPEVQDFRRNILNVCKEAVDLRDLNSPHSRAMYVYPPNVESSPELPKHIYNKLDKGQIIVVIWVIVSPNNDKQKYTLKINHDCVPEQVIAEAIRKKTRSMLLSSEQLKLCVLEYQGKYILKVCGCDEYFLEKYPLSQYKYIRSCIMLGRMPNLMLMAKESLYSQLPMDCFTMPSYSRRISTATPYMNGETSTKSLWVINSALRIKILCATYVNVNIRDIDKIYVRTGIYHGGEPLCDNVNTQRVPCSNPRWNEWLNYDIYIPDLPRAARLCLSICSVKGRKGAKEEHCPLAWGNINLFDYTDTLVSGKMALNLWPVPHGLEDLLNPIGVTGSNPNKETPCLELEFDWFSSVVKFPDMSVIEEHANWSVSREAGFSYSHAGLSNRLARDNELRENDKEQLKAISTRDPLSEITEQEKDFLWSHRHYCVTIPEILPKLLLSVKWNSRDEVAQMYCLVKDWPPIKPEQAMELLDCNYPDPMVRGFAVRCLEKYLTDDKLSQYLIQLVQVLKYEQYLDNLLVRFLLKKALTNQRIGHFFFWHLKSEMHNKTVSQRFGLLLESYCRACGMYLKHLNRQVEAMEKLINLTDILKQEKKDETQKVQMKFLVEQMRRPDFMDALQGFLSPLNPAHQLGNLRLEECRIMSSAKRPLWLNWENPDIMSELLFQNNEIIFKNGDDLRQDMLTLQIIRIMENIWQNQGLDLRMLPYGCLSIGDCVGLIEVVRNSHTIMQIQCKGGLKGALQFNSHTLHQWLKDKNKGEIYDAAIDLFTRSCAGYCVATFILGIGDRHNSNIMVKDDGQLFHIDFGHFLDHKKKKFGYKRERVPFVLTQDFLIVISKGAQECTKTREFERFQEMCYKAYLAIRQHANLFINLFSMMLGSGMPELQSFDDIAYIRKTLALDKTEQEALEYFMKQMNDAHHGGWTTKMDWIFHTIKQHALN
Sequence of PIK3CD (Human) (O00329 whole entry, looked up): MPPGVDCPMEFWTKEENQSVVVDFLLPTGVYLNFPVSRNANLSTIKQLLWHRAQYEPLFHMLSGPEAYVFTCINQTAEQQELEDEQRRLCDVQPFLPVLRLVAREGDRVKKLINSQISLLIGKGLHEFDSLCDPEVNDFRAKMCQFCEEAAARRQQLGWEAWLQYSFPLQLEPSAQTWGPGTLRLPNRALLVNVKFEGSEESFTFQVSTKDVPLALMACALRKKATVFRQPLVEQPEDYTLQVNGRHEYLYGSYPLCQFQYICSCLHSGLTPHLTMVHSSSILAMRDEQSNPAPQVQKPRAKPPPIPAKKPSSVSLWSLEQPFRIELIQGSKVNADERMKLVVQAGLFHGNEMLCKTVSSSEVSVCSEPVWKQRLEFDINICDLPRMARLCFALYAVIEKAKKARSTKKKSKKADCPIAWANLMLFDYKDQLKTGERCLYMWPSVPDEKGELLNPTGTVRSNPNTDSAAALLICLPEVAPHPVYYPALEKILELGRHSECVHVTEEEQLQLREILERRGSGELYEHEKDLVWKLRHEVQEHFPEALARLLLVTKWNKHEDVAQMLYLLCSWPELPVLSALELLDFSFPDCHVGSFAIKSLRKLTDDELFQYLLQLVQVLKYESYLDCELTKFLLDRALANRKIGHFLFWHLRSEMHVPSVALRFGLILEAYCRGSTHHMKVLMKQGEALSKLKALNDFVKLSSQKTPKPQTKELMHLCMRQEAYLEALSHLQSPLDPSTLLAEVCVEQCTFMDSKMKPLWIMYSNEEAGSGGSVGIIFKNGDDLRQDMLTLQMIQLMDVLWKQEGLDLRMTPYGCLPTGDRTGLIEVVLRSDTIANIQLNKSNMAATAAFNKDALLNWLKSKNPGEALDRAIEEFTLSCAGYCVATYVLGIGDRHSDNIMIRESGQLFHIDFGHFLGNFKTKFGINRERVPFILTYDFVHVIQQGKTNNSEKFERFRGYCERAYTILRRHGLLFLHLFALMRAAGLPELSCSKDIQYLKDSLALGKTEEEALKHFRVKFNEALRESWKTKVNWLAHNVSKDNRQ
Sequence of PIK3CA (human), P42336 [I800L] (P42336 whole entry I800L, looked up): as the sequence (P42336 whole entry, looked up) above, with I800L counted along it
Sequence of PIK3CG (human) (P48736 whole entry, looked up): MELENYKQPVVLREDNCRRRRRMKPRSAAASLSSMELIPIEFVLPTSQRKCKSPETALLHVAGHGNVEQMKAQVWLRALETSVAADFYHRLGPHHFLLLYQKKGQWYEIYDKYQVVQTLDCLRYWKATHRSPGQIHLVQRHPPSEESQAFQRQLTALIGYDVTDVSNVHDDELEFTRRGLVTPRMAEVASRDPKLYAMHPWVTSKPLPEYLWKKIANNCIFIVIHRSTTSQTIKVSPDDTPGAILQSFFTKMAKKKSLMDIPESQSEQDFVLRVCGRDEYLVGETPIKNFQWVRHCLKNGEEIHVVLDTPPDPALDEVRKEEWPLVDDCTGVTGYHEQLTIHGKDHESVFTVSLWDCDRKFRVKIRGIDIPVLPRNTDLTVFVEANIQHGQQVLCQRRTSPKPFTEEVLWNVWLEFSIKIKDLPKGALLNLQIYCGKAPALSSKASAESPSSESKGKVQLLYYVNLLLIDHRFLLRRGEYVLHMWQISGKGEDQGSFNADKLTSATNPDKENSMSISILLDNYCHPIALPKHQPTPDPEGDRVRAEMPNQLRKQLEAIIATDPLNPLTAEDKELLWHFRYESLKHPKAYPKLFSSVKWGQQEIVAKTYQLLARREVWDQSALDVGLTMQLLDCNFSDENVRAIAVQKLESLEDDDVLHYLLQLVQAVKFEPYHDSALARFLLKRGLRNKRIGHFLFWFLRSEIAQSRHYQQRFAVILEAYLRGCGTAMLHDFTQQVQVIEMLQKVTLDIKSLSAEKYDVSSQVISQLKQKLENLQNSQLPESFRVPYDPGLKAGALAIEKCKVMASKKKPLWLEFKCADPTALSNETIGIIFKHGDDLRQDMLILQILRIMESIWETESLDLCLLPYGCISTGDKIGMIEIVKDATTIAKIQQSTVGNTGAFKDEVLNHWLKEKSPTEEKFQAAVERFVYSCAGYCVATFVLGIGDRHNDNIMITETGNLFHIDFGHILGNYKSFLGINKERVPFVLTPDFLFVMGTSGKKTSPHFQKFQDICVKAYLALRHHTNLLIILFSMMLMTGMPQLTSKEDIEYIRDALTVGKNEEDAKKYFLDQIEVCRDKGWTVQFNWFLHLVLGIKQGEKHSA

COC(=O)Nc1ccc(-c2nc(N3CCOCC3)c3cnn(C4CCN(C(=O)OC)CC4)c3n2)cc1
IC50 (PIK3CB (Human) [1]): 9200 nM | IC50 (PIK3CA (human) [2]): 886 nM | Kd (PIK3CA (human) [2]): 140 nM | IC50 (PIK3CB (Human) [3]): > 12000 nM | IC50 (PIK3CG (human)): 1870 nM | Kd [4]: 190 nM | IC50 (PIK3CD (Human) [5]): 1290 nM | IC50 (PIK3CA (human) [6]): 1200 nM | IC50 (PIK3CB (Human) [7]): 10000 nM | IC50 (PIK3CD (Human) [8]): 3300 nM and 980 nM
